Like-named read-outs stand apart in the source and are kept apart here.
Experiments:
PMN nicotinic receptors [1] = assay: [3H]-epibatidine binding sites in PMN of smokers and non-smokers; set-up: species or system human
Method: (§1) FIG. 2: [^3H]-epibatidine (A) and [^125I]-α-bungarotoxin (B) binding sites in human polymorphonuclear cells isolated from smokers (n=90 and 60, respectively) and non-smokers (n=50). Binding levels were measured at 10 nM of [^3H]-epibatidine and [^125I]-α-bungarotoxin. Nonspecific binding was determined in the presence of 1 μM or 100 μM of nicotine, respectively.
(§2) Human polymorphonuclear leukocytes were isolated according to a slightly modified version of the method described by Cabanis (Cabanis, Gressier et al. 1994). Briefly, 20 ml of fresh heparinized blood were diluted with an equal amount of phosphate-buffered saline (PBS) 0.1 M, pH 7.4, and placed above 10 ml of Histopaque-1077. After centrifugation at 400 g for 30 min, the pellet was resuspended in 40 ml of cold isotonic ammonium chloride solution (NH4Cl 0.15 M, NaHCO3 10 mM). Following 20 min at 4° C., the cell suspension was centrifuged at 160 g for 10 minutes, and the white pellets were washed twice in 10 ml of Hank's buffer. The protein content was measured using the method developed by Lowry et al. (Lowry et al. 1951).
(§3) Binding assays were performed on intact purified PMN. Cellular protein (100 μg) was incubated with 10 nM [^3H]-epibatidine for 30 min. or with [^125I]-α-bungarotoxin for 60 min at 25° C. in a volume of 100 μl. Specific binding was defined as the difference between total binding and binding in the presence of 1 μM or 100 μM nicotine, performed in triplicate.
Nicotinic receptor binding sites in PMN were investigated from 90 smokers and 50 non-smokers. Participating smokers were recruited from the Centre de Tabacologie, Hôpital A. Chenevier, Créteil.

[2] = molecular target: nicotinic acetylcholine receptors; conditions: cited from earlier work
[3] = in vivo; cited from earlier work
melanoma X63-Ag8 cells = assay: total epibatidine-binding sites in X63-Ag8 cells; conditions: mean and standard error of three independent experiments
Excerpt: (§4) The presence of nAChRs in B lymphocytes was further confirmed by studying the [^3H]-epibatidine and [^125I]-α-bungarotoxin binding. Epibatidine is a potent agonist of heteromeric nAChRs, while -α-bungarotoxin (α-Bgt) binds to both muscle-type nAChRs and homomeric neuronal-type of nAChRs. In addition, epibatidine penetrates inside the cell and binds both surface and intracellular receptors, while α-Bgt, when tested at ice-cold temperature, binds only surface-expressed receptors. Normal B lymphocytes and […] X63-Ag8 cells contained almost equal amounts of total epibatidine-binding sites per cell (12,220±3,200 and 10,170±1,100, respectively, means and standard error of three independent experiments).

PMN nicotinic receptors [4] = assay: saturation of specific [3H]-epibatidine binding to smokers' polymorphonuclear leukocytes; set-up: species or system human
Method: Insets, Scatchard analyses of specific binding of [^3H]-epibatidine and [^125I]-α-bungarotoxin (1 pM to 10 nM). Nonspecific binding was determined in the presence of 1 μM or 100 μM of nicotine respectively. Data are the mean± standard error of three experiments.
as §2, §3
Saturation studies were conducted with increasing concentrations of [^3H]-epibatidine (1 pM-10 nM) and [^125I]-α-bungarotoxin (1 pM-10 nM). Specific binding was defined as the difference between total binding and binding in the presence of 1 μM or 100 μM nicotine, respectively, performed in triplicate. Following the binding reactions, bound and free ligands were separated by rapid vacuum filtration through Whatman GF/B fiberglass filters (Polylabo) treated with ice-cold buffer (KH2PO4 5 mM, Na2HPO4 20 mM, NaCl 100 mM, pH 7.4) containing 0.1% milk. The filters were rinsed three times with 5 ml of the same ice-cold buffer and placed in vials with 4 ml of Picofluor 30 scintillation liquid (Packard Instrument). The radioactivity was determined by liquid scintillation counting.
Binding experiments were investigated in smokers' polymorphonuclear leukocyte cells in presence of various concentrations of [^3H]-epibatidine ranging from 0.1 nM to 25 nM.
For each experiment, the mean values of RCR or percentages were compared in a one-way analysis of variance and a Dunneft test. EC50 was calculated by non-linear regression fit of effect-concentration (C) curve to the equation: E=(Emax×C)/(C+EC50), where Emax and EC50 are the maximal efficiency and the concentration producing 50% effect respectively, using commercially available software (Micropharm®) (Urien 1995). Data from binding experiments were analysed by means of non-linear regression with commercially available software (Micropharm®) (Urien 1995).

Normal B lymphocytes = assay: total epibatidine-binding sites in B lymphocytes; conditions: mean and standard error of three independent experiments
Excerpt: as §4

[5] = hot plate assay; cited from earlier work
opioid receptor = conditions: cited from earlier work
PMN nicotinic receptors [6] = assay: saturation of specific [125I]-α-bungarotoxin binding to smokers' polymorphonuclear leukocytes; set-up: species or system human
Method: FIG. 1: Saturation of specific [^3H]-epibatidine (A) and [^125I]-α-bungarotoxin (B) binding to human polymorphonuclear cells. Insets, Scatchard analyses of specific binding of [^3H]-epibatidine and [^125I]-α-bungarotoxin (1 pM to 10 nM). […] Data are the mean± standard error of three experiments.
Saturation studies were conducted with increasing concentrations of [^3H]-epibatidine (1 pM-10 nM) and [^125I]-α-bungarotoxin (1 pM-10 nM). […] Following the binding reactions, bound and free ligands were separated by rapid vacuum filtration through Whatman GF/B fiberglass filters (Polylabo) treated with ice-cold buffer (KH2PO4 5 mM, Na2HPO4 20 mM, NaCl 100 mM, pH 7.4) containing 0.1% milk. The filters were rinsed three times with 5 ml of the same ice-cold buffer and placed in vials with 4 ml of Picofluor 30 scintillation liquid (Packard Instrument). The radioactivity was determined by liquid scintillation counting.
Smokers' polymorphonuclear leukocytes (n=3) were used to investigate saturation experiments.

PMN nicotinic receptors [7] = assay: [125I]-α-bungarotoxin binding sites in PMN of smokers and non-smokers; set-up: species or system human
Method: as §1, §2
Binding assays were performed on intact purified PMN. Cellular protein (100 μg) was incubated with 10 nM [^3H]-epibatidine for 30 min. or with [^125I]-α-bungarotoxin for 60 min at 25° C. in a volume of 100 μl. […]

[8] = tested on: human polymorphonuclear cells
[9] = tested on: human polymorphonuclear cells; remark: listed apart in the source

Method for α3, α4 and β2 subunits: Total RNA was isolated from smokers and non-smokers (TRIZOL, Gibco). First strand cDNA synthesis reactions were performed after annealing 5 μg of total RNA with 100 ng random hexamers (70° C. for 10 minutes) by incubation at 42° C. for 50 minutes. Polymerase chain reactions were carried out in a 20 μl reaction volume containing 1 μl cDNA product, 250 ng of both forward and reverse primers (Table 1), 5 units of Taq polymerase then cycled 30 times at 95° C. for 1 minute, 55° C. for 1 minute and 72° C. for 2 minutes. The amplified DNA products were analysed by agarose gel electrophoresis and stained with ethidium bromide. The PCR products were transferred from the gel to Hybond-N^+ membranes (Amersham) and hybridised with a ^32P-end-labelled oligoprobe (Table 1). Southern blot hybridizations were performed overnight at 42° C. in hybridisation buffer (5×SSC, 1× Denhardt's, 20 mM sodium phosphate buffer pH 6.5, 0.1% SDS, 100 μg/ml tRNA). The Southern blots were washed for 1 hour at room temperature in 2×SSC and 1% SDS, then exposed to X-ray film (Kodak Biomax) overnight with an intensifying screen.

Clc1ccc(C2CC3CCC2N3)cn1 (stereo not drawn) [epibatidine, exo-2(6-chloro-3-pyridyl)-7-azabicyclo[2.2.1]-heptane]
binding sites in non-smokers' PMN (PMN nicotinic receptors [1]; 50 non-smokers, listed as [^3H]-epibatidine): not present and None
smokers with detected binding sites (PMN nicotinic receptors [1]; 90 smokers): 82%
total number of binding sites in smokers (PMN nicotinic receptors [1]; PMN of smokers, 10 nM radioligand): 40.65±4.89 fmol/mg protein
Ki ([2]; nAChR, restated in pM): ~55 pM
Ki ([2]; nAChR): 43 to 55 pM
eliciting the Straub-tail response compared with morphine [3]: approximately 500 fold that of morphine
total epibatidine-binding sites per cell (melanoma X63-Ag8 cells): 10,170±1,100 sites per cell
Hill coefficient (PMN nicotinic receptors [4]; biphasic Scatchard plot): 0.76
Bmax1, high affinity site (PMN nicotinic receptors [4]; first site): 46.97±5.64 fmol/mg protein
share of the total binding sites, high affinity site (PMN nicotinic receptors [4]; first site): 86.86%
Kd (PMN nicotinic receptors [4]; first site, read-out: Kd2, high affinity site): 2.11 ± 0.43 nM
Bmax1, very high affinity site (PMN nicotinic receptors [4]; second site): 7.73±0.64 fmol/mg protein
share of the total binding sites, very high affinity site (PMN nicotinic receptors [4]; second site): 14.14%
Kd (PMN nicotinic receptors [4]; second site, read-out: Kd1, very high affinity site): 0.0563 ± 0.0278 nM
total epibatidine-binding sites per cell (Normal B lymphocytes): 12,220±3,200 sites per cell
analgesic effect compared with morphine [5]: approximately 200 times higher than morphine
affinity for the opioid receptor (opioid receptor): 1/8000

CNC1(C)C2CCC(C2)C1(C)C (stereo not shown) [mecamylamine]
blockade of epibatidine binding to nicotinic acetylcholine receptors ([2]; noncompetitive nicotinic antagonist): can be blocked

[^125I]-α-bungarotoxin
Bmax (PMN nicotinic receptors [6]): 189.46±126.27 fmol/mg proteins
nH (Scatchard plot linearity) (PMN nicotinic receptors [6]): 1.08±0.06
Kd (PMN nicotinic receptors [6]; read-out: apparent Kd): 2.77 ± 1.54 nM
PMN tested that demonstrated binding sites (PMN nicotinic receptors [7]): Approximately 30%
binding sites in smokers compared with non-smokers (PMN nicotinic receptors [7]): No difference

CN1CCCC1c1cccnc1 (stereo not shown) [nicotine]
Ki [2]: 1010 pM
change in the binding of [125I]-α-bungarotoxin to PMN [8]: no change
nAChR subunit expression after ex-vivo nicotine exposure (α3, α4 and β2 subunits): induced expression of α3, α4 and β2 subunits
Bmax of [3H]-epibatidine binding sites after nicotine [9]: 34.66±6.25 fmol/mg protein
formation of [3H]-epibatidine binding sites [9]: induced the formation
increase of the number of [3H]-epibatidine binding sites [9]: 2.67 fold
number of [3H]-epibatidine binding sites after nicotine [9]: 29.19±10.28 fmol/mg protein

Cc1cc([C@H]2C[C@@H]3CC[C@H]2N3)on1 [epiboxidine]
Ki ([2]; nAChR): 600 pM

Source: patent US20040058310A1 (priority 2002, published 2004)
